Laboratory results reported in US9771369B2, “Compounds and methods for kinase modulation, and indications therefor” (Plexxikon Inc., priority 2014, dated 2017).

These compounds were tested against c-kit mutant D816V (Homo sapiens (Human), UniProt P10721, D816V/DEL694-753) (assay: c-Kit mutant D816V biochemical assay (AlphaScreen kinase activity)).
How it was run: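 AlphaScreen with streptavidin donor and PY30 acceptor beads read phosphotyrosine on biotin-(E4Y)10 substrate (30 nM). Enzyme: E. coli-expressed N-His c-Kit D816V, residues 551-934 lacking kinase insert 694-753. Reaction 30 min at room temperature, 10 μM ATP, 5% DMSO; IC50 fitted over 8 three-fold dilutions.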

Chain of c-kit mutant D816V (P10721 other isoform, or with tags, fused parts or gaps D816V/del 694-753): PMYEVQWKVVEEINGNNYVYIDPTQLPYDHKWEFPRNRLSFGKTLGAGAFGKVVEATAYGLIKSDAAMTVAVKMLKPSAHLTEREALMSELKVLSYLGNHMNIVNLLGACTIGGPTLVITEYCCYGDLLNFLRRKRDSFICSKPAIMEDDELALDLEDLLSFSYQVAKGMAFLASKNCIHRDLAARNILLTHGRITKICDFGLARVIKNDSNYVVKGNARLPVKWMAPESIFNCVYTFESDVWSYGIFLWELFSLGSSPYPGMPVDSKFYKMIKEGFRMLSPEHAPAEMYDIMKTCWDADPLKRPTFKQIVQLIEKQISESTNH

| Compound | IC50 |
| --- | --- |
| Cc1nc(C2CCN(c3ncnc4[nH]c(-c5ccc(F)cc5)cc34)CC2)[nH]c1-c1ccc2c(c1)OC(F)(F)O2 [P-3109, 4-[4-[5-(2,2-difluoro-1,3-benzodioxol-5-yl)-4-methyl-1H-imidazol-2-yl]-1-piperidyl]-6-(4-fluorophenyl)-7H-pyrrolo[2,3-d]pyrimidine] | 0.0001 to 1 µM |
| CCOc1ccc(-c2[nH]c(C3(C)CCN(c4ncnc5[nH]c(-c6ccc(C#N)cc6)cc45)CC3)nc2C)cc1C [P-3160, 4-[4-[4-[5-(4-ethoxy-3-methyl-phenyl)-4-methyl-1H-imidazol-2-yl]-4-methyl-1-piperidyl]-7H-pyrrolo[2,3-d]pyrimidin-6-yl]benzonitrile] | 0.0001 to 1 µM |
| COc1cc(-c2cc3c(N4CCC(c5nnc(-c6ccc(F)cc6)[nH]5)CC4)ncnc3[nH]2)ccn1 [P-3205, 4-[4-[5-(4-fluorophenyl)-4H-1,2,4-triazol-3-yl]-1-piperidyl]-6-(2-methoxy-4-pyridyl)-7H-pyrrolo[2,3-d]pyrimidine] | 1 to 10 µM |
| CCOc1cc(-c2[nH]c(C3CCN(c4ncnc5[nH]c(-c6ccc(C#N)cc6)cc45)CC3)nc2C)ccc1C [P-3095, 4-[4-[4-[5-(3-ethoxy-4-methyl-phenyl)-4-methyl-1H-imidazol-2-yl]-1-piperidyl]-7H-pyrrolo[2,3-d]pyrimidin-6-yl]benzonitrile] | 0.0001 to 1 µM |
| COc1cccc(-c2[nH]c(C3CCN(c4ncnc5[nH]c(-c6ccnc(OC)c6)cc45)CC3)nc2C(F)(F)F)c1 [P-3123, 4-[4-[5-(3-methoxyphenyl)-4-(trifluoromethyl)-1H-imidazol-2-yl]-1-piperidyl]-6-(2-methoxy-4-pyridyl)-7H-pyrrolo[2,3-d]pyrimidine] | 0.0001 to 1 µM |
| Cc1nc(C2CCN(c3ncnc4[nH]c(-c5ccc(C#N)cc5)cc34)CC2)[nH]c1-c1ccc2c(c1)OC(F)(F)O2 [P-3110, 4-[4-[4-[5-(2,2-difluoro-1,3-benzodioxol-5-yl)-4-methyl-1H-imidazol-2-yl]-1-piperidyl]-7H-pyrrolo[2,3-d]pyrimidin-6-yl]benzonitrile] | 0.0001 to 1 µM |
| Cc1nc(C2CCN(c3ncnc4[nH]c(-c5ccc(C#N)cc5)cc34)CC2)[nH]c1-c1ccc(C(F)(F)F)cc1 [P-3137, 4-[4-[4-[4-methyl-5-[4-(trifluoromethyl)phenyl]-1H-imidazol-2-yl]-1-piperidyl]-7H-pyrrolo[2,3-d]pyrimidin-6-yl]benzonitrile] | 0.0001 to 1 µM |
| Cc1cc2c(N3CCC(c4nc(C)c(-c5ccc6c(c5)OCCO6)[nH]4)CC3)ncnc2[nH]1 [P-3121, 4-[4-[5-(2,3-dihydro-1,4-benzodioxin-6-yl)-4-methyl-1H-imidazol-2-yl]-1-piperidyl]-6-methyl-7H-pyrrolo[2,3-d]pyrimidine] | 0.0001 to 1 µM |
| Cc1nc(C2CCN(c3ncnc4[nH]c(-c5ccc(C#N)cc5)cc34)CC2)[nH]c1-c1ccc(C(F)F)cc1 [P-3162, 4-[4-[4-[5-[4-(difluoromethyl)phenyl]-4-methyl-1H-imidazol-2-yl]-1-piperidyl]-7H-pyrrolo[2,3-d]pyrimidin-6-yl]benzonitrile] | 0.0001 to 1 µM |
| CCC1(c2nc(C)c(-c3ccc4c(c3)OCO4)[nH]2)CCN(c2ncnc3[nH]c(C)cc23)CC1 [P-3143, 4-[4-[5-(1,3-benzodioxol-5-yl)-4-methyl-1H-imidazol-2-yl]-4-ethyl-1-piperidyl]-6-methyl-7H-pyrrolo[2,3-d]pyrimidine] | 0.0001 to 1 µM |
